Results from patent publication US7456018B2, “Human hepatoma lines, methods for obtaining same and uses thereof” (priority 2001, dated 2008).
Entries after “also recorded” stand apart in the source; their conditions may differ.

Assays:
[1] = system: HBV; test: Antiviral activity of 3TC on HBV-infected HepaRG cells, viral DNA by Amplicor-Monitor test; assay type: cell-based, hepatitis B virus; conditions: day 8 to 15 after infection, vs infected non-treated control
Protocol: (§1) The cells are maintained and infected according to the protocols of Examples 1 and 5.
[…] A complete replenishment of the medium is carried out every two days. The supernatants are stored at −20° C. and the cell pellets at −80° C.
The viral DNA present in the culture supernatant could be detected and quantified by the Amplicor-Monitor test (ROCHE). The results are expressed as number of viral particles/ml. For the analysis of intracellular viral DNA, the cells were separated with trypsin and stored at −80° C. The total DNA was isolated according to the protocol described previously (Zoulim et al., 1998, Drug therapy for chronic hepatitis B virus replication. J. Hepatol. 29:151-168).

[2] = system: HBV; test: HBs antigen in culture supernatant of HBV-infected HepaRG cells treated by 3TC (ELISA); assay type: cell-based, hepatitis B virus; conditions: after 8 days of treatment by 3TC, all doses
Protocol: as §1
The antiviral treatment by 3TC is administered from the 8th day to the 15th day following the infection of the HepaRG cells, at final concentrations of 0.1 and 10 μM in the culture medium. A complete replenishment of the medium is carried out every two days. The supernatants are stored at −20° C. and the cell pellets at −80° C.
The viral antigen (HBs) was detected in the culture supernatant using the commercial ELISA test ETI-MAK-3® (SORIN).

[3] = system: HepaRG cells; test: Toxicity of DMSO to HepaRG cells without corticoid; assay type: cell-based, human; conditions: 2% of DMSO, HepaRG cells in the absence of corticoid
Protocol: A first series of experiments was carried out in order to study the effects of the absence of the corticoid on cells having always been maintained in its presence. In FIG. 9A, the HepaRG cells at passage 13, were kept for 2 additional passages either in the continuous presence of hydrocortisone (growth: HN), or in the absence of hydrocortisone (growth: HO). They were then induced to differentiate (diff.) for 3 weeks in the absence of hydrocortisone (HO) or in the presence of hydrocortisone 5×10^−5 M (HN), and in the presence of different concentrations of DMSO.
The withdrawal of the corticoid was carried out at confluence, i.e. at the time when the cells begin their differentiation.
The cells are kept in a culture medium without corticoid and their ability to carry out differentiation is tested after 2 (FIG. 9A) and 10 passages (FIG. 9B).

[4] = system: HBV; test: Infectability of HepaRG cells by HBV according to culture/differentiation medium, HbsAg secretion; assay type: cell-based, hepatitis B virus
Protocol: The cells used for the infection are cells having been cultured according to the conditions defined in Example 1 (permanent presence of 5.10^−5M of hydrocortisone hemisuccinate) and having been maintained for a week at confluence, then for 2 weeks in the same medium with 2% of DMSO added.
These cells are incubated with the infectious source, diluted 10 times, in the culture medium with 4% of PEG 8000 (Sigma) added, for 20 hours at 37° C. The second part of this HBV infection protocol was established by Gripon et al., 1993, Virology, 192: 534-540.
At the end of the incubation, the cells are washed three times with culture medium and maintained in the presence of 2% of DMSO and 5.10^−5 M of hydrocortisone hemisuccinate until they are used.
The HBs antigen was detected in the medium using the ELISA kit (Monolisa AgHBs plus®) from Biorad Laboratories. The results are expressed in pg/ml of supernatant.
The ability of the HepaRG cells to be infected was studied as a function of their degree of differentiation. Using the methods described in Examples 1 and 2, the cell differentiation programme was modified.
A first series of infection was carried out on cells continually maintained in the presence of corticoid only, then in the presence of corticoid and different concentrations of DMSO, in order to induce different stages of differentiation.
This correlation was confirmed by a series of experiments carried out on cells infected at confluence (before their differentiation) then placed under optimum conditions in order to induce their differentiation.
Finally, the effectiveness of an infection carried out on undifferentiated cells multiplying actively was compared with that on cells with arrested growth and well-differentiated.

[5] = system: HepaRG cells; test: Biliary/hepatocyte route differentiation of HepaRG cells, in situ marking (indirect immunohistochemistry); assay type: cell-based, human; parameters: Cytokeratin 19 expression: key: −/+: weakly positive; +: positive; ++: highly positive; conditions: HepaRG cells treated with 2% DMSO or 3.75 mM sodium butyrate; as to Albumin expression: key: −/+: weakly positive; +: positive; ++: highly positive; as to Cytokeratin 7 expression: key: −/+: weakly positive; +: positive; ++: highly positive; as to α1 chain expression: key: −/+: weakly positive; +: positive; ++: highly positive; as to α6 chain expression: key: −/+: weakly positive; +: positive; ++: highly positive; as to γ-glutamyl transferase expression: key: −/+: weakly positive; +: positive; ++: highly positive
Protocol: HepaRG cells were separated, diluted to ⅕ in Williams' E medium to which 5 μg/ml of insulin, 100 U/ml of penicillin, 100 μg/ml of streptomycin, 510-5M of hydrocortisone hemisuccinate, 2 mM of L-glutamine and 10% FCS were added, then redistributed into wells with a plastic support. Four culture conditions were produced: • HepaRG cells were treated with 3.75 mM sodium butyrate in the maintenance medium as from the day following subculture according to the protocol described by Blouin et al. (1995, Specialization switch in differentiating embryonic rat liver progenitor cells in response to sodium butyrate, Exp. cell res., 217: 22-33). The medium is then replenished every 2-3 days, • the HepaRG cells were treated 5 days after subculture by 3.75 mM sodium butyrate or 2% DMSO. The medium was replenished every day for 5 days, • the HepaRG cells were treated at strong confluence by 3.75 mM sodium butyrate; the medium was replenished every 2-3 days, • the HepaRG cells were seeded on a plastic support or monolayer of rat primitive biliary epithelial cells in MEM alpha medium complemented with L-glutamine (2 mM), i-inositol (0.2 mM), folic acid ([…]), β-mercaptoethanol (10^−4 M), transferrin 200 μg/ml, 12.5% FCS and 12.5% horse serum. In certain situations, cytokines such as LIF, IL-3, SCF or G-CSF were added to the medium. This medium was replenished every 2-3 days. Indirect Immunohistochemistry
The cells after washing with PBS are fixed by a solution of 4% paraformaldehyde buffered by 0.1 M sodium cacodylate at pH 7.4 for 20 minutes at 4° C. They are then preserved in a PBS buffer until the time of the analysis.
The specific sites are saturated for 45 minutes with PBS containing 10% FCS. The samples are then treated with primary antibodies for an hour at ordinary temperature in PBS containing 0.05% saponin. After 3 washings in PBS containing 0.05% saponin, the samples are incubated with the second antibody coupled to peroxydase.
The morphological modifications observed in the presence of sodium butyrate are correlated to phenotypical changes (Blouin et al. 1995). We used four markers of differentiation towards the biliary route, γ-glutamyl transferase, the α6 chain of integrins and the cytokeratins 7 and 19 which normally disappear when the cells are directed towards the hepatocyte route. For differentiation towards the hepatocyte route, we looked for an increase in the expression of albumin and a reduction in the expression of the al chain of the integrins.

[6] = system: HCV; test: Sensitivity of HCV replication in infected HepaRG cells to interferon α, viral RNA by RT-PCR; assay type: cell-based; conditions: 5 U.I./ml
Protocol: These cells are incubated for 48 hours at 37° C. with the infectious source, diluted 10 times, in the culture medium devoid of FCS and optionally with PEG 8000 (Sigma) added.
The replicative forms of the intracellular viral RNAs were isolated in all the cell lysates. The cells are recovered after separation with trypsin, then the total RNA is extracted using the High Pure RNA Isolation kit (Roche). The quantity of total RNA extracted is estimated by optical density in order to standardize the different samples. The quality and homogeneity of the RNAs are examined by visualizing the ribosomic RNAs (rRNA: 28S and 18S) on a 1% agarose gel stained with ethidium bromide.
The RNAs of the viral particles are extracted from the culture supernatant using the High Pure viral RNA kit (Roche).
By retrotranscription (RT), the complementary DNA (cDNA) of the viral RNAs of positive polarity is synthesized from a specific prime hybridizing at 5′ of the region which codes for the viral capsid protein. This oligonucleotide (5′-[…]-3′), designated as SEQ ID NO:1, derived from that described by Martell et al., 1999, Journal of Clinical Microbiology, 37: 327-332 , designated C-342. The cDNA is then amplified by the “Polymerase Chain Reaction” (PCR) technique using two primers hybridizing in the 5′ non-translated region of the viral genome. The primers used are as follows: the sense oligonucleotide (5′-TGAGTGTCGTRCAGCCTCC-3′), designated as SEQ ID NO:2, and the antisense oligonucleotide (5′-[…]-3′), designated as SEQ ID NO:3, which corresponds to that conceived by Mercier et al., 1999, Journal of Virological Methods, 77 1-9, designated NCR-3. The amplification product (amplicon of 190 pb) is visualized on a 2% agarose gel stained with ethidium bromide. A marker of molecular weight of DNA (M) is also deposited in order to verify the identity of the amplicon by its size. The effectiveness of the different stages is always controlled by detecting the viral RNA present in a standard (T+), which corresponds to a diluted serum, originating from an infected patient. […]

For Nc1ccn([C@@H]2CS[C@H](CO)O2)c(=O)n1 [3TC], the “Inhibition (quantity of viral DNA)” value ([1]; 3TC 0.1 μM) was 69, the “Inhibition (quantity of viral DNA)” value ([1]; 3TC 1 μM) was 98 and the “Inhibition (quantity of viral DNA)” value ([1]; 3TC 10 μM) was 100. For the same compound, the “HBs antigen in the culture supernatant” value [2] was “constant whatever the dose and equal to the non-treated control”.

In the case of C[S+](C)[O-] [DMSO], the “Toxicity of the addition of DMSO” value [3] is reported as “so toxic that its use is impossible; also recorded: highly toxic”, the HbsAg secretion ([4]; DMSO 1% in differentiation medium after day 17, infection on day 15, supernatant 47 days after seeding) is reported as 70 pg/mL and the HbsAg secretion ([4]; DMSO 1% in differentiation medium after day 17, infection on day 28, supernatant 47 days after seeding) is reported as 214 pg/mL. For the same compound, the HbsAg secretion ([4]; DMSO 2% in differentiation medium after day 17, infection on day 15, supernatant 47 days after seeding) was 79 pg/mL, the HbsAg secretion ([4]; DMSO 2% in differentiation medium after day 17, infection on day 28, supernatant 47 days after seeding) was greater than 2000 pg/mL and the Albumin expression [5] was “++”. For the same compound, the α1 chain expression [5] was “+” and the γ-glutamyl transferase expression [5] was “−/+”.

With CCCC(=O)[O-].[Na+] [Sodium butyrate, sodium butyrate] the Albumin expression [5] was “−/+”, the “Cytokeratin 7 expression” value [5] was “+” and the “Cytokeratin 19 expression” value [5] was “++”. The α1 chain expression [5] was “−/+”, the α6 chain expression [5] was “+” and the γ-glutamyl transferase expression [5] was “++”.

hydrocortisone hemisuccinate [HN] showed a HbsAg secretion ([4]; culture HN, HN after 17th day, infection D3 (growth), 47 days after seeding) of 33 pg/mL, a HbsAg secretion ([4]; culture HN, HN after 17th day, infection D5 (growth), 47 days after seeding) of 37 pg/mL and a HbsAg secretion ([4]; culture HN, HN after 17th day, infection D10 (confluence), 47 days after seeding) of 93 pg/mL. The HbsAg secretion ([4]; culture HN, HN with 2% of DMSO after 17th day, infection D3 (growth), 47 days after seeding) was 41 pg/mL, the HbsAg secretion ([4]; culture HN, HN with 2% of DMSO after 17th day, infection D5 (growth), 47 days after seeding) was 84 pg/mL and the HbsAg secretion ([4]; culture HN, HN with 2% of DMSO after 17th day, infection D10 (confluence), 47 days after seeding) was 171 pg/mL.

“interferon α: antiviral cytokine (Introna®, Schering-Plough, France)” was tested, and the “Extracellular viral RNA, kinetics” value ([6]; after four days of incubation, Day 10 to Day 12) was “no extracellular viral RNA is detected”, the “Viral RNA signal in the extracellular medium” value ([6]; six days of treatment, 12th day after infection) was “complete disappearance of the signal” and the “Drop of the intracellular viral RNA signal” value ([6]; six days of treatment, 12th day after infection, serum No. 4) was “more than 60%”.
